Results reported in PubChem BioAssay (NCI).
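Grown in 96-well plates, cells were treated for 48 hours with each compound at five concentrations. Insufficient inhibition: endpoint recorded as highest concentration tested. GI50 = concentration required for 50% inhibition of growth. TGI marks complete inhibition of growth.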

Assays:
Experiment in all cases: inhibition of tumour cell growth, NCI panel, 48 h; in the data active = GI50 below about 0.43 µM; inactive = the rest
OVCAR-4 ovarian = tested on: OVCAR-4 ovarian
PC-3 prostate = tested on: PC-3 prostate
SNB-75 CNS = tested on: SNB-75 CNS
HCT-116 colon = tested on: HCT-116 colon
NCI-H23 lung = tested on: NCI-H23 lung
SK-MEL-28 melanoma = tested on: SK-MEL-28 melanoma
SR leukemia = tested on: SR leukemia
NCI-H226 lung = tested on: NCI-H226 lung
HT29 colon = tested on: HT29 colon
UO-31 renal = tested on: UO-31 renal
SK-MEL-5 melanoma = tested on: SK-MEL-5 melanoma
HL-60(TB) leukemia = tested on: HL-60(TB) leukemia
HOP-62 NSCLC = tested on: HOP-62 NSCLC
RXF 393 renal = tested on: RXF 393 renal
HS 578T breast = tested on: HS 578T breast
OVCAR-3 ovarian = tested on: OVCAR-3 ovarian
SW-620 colon = tested on: SW-620 colon
SF-539 CNS = tested on: SF-539 CNS
SF-268 CNS = tested on: SF-268 CNS
RPMI-8226 leukemia = tested on: RPMI-8226 leukemia
HCT-15 colon = tested on: HCT-15 colon
UACC-257 melanoma = tested on: UACC-257 melanoma
HCC-2998 colon = tested on: HCC-2998 colon
TK-10 renal = tested on: TK-10 renal
NCI-H522 lung = tested on: NCI-H522 lung
OVCAR-8 ovarian = tested on: OVCAR-8 ovarian
K-562 leukemia = tested on: K-562 leukemia
KM12 colon = tested on: KM12 colon
OVCAR-5 ovarian = tested on: OVCAR-5 ovarian
MDA-MB-231 breast = tested on: MDA-MB-231 breast
MALME-3M melanoma = tested on: MALME-3M melanoma
LOX IMVI melanoma = tested on: LOX IMVI melanoma
MDA-MB-435 = tested on: MDA-MB-435
HOP-92 NSCLC = tested on: HOP-92 NSCLC
CAKI-1 renal = tested on: CAKI-1 renal
ACHN renal = tested on: ACHN renal
IGROV1 ovarian = tested on: IGROV1 ovarian
M14 melanoma = tested on: M14 melanoma
UACC-62 melanoma = tested on: UACC-62 melanoma
A498 renal = tested on: A498 renal
SN12C renal = tested on: SN12C renal
SK-OV-3 ovarian = tested on: SK-OV-3 ovarian
MCF7 breast = tested on: MCF7 breast
EKVX NSCLC = tested on: EKVX NSCLC
NCI-H460 lung = tested on: NCI-H460 lung
MOLT-4 leukemia = tested on: MOLT-4 leukemia
DU-145 prostate = tested on: DU-145 prostate
SNB-19 CNS = tested on: SNB-19 CNS
BT-549 breast = tested on: BT-549 breast
SK-MEL-2 melanoma = tested on: SK-MEL-2 melanoma
CCRF-CEM leukemia = tested on: CCRF-CEM leukemia
A549 NSCLC = tested on: A549 NSCLC
U251 CNS = tested on: U251 CNS
T-47D breast = tested on: T-47D breast
NCI/ADR-RES ovarian = tested on: NCI/ADR-RES ovarian
COLO 205 colon = tested on: COLO 205 colon
SF-295 CNS = tested on: SF-295 CNS
786-0 renal = tested on: 786-0 renal

Cn1cc(-c2csc(-c3c[nH]c4ccccc34)n2)c2cccnc21
> 64400 nM: TGI (A549 NSCLC)
4820 nM: TGI (SNB-75 CNS)
> 91100 nM: TGI (786-0 renal)
> 44100 nM: TGI (UO-31 renal)
active: GI50 (HCT-116 colon) 363 nM | GI50 (HT29 colon) 324 nM | GI50 (SK-MEL-5 melanoma) 391 nM | GI50 (HL-60(TB) leukemia) 343 nM | GI50 (OVCAR-3 ovarian) 297 nM | GI50 (SW-620 colon) 367 nM | GI50 (NCI-H522 lung) 211 nM | GI50 (K-562 leukemia) 232 nM | GI50 (KM12 colon) 413 nM | GI50 (MALME-3M melanoma) 215 nM | GI50 (MDA-MB-435) 80.4 nM | GI50 (CAKI-1 renal) 291 nM | GI50 (IGROV1 ovarian) 308 nM | GI50 (M14 melanoma) 356 nM | GI50 (NCI-H460 lung) 370 nM | GI50 (U251 CNS) 415 nM | GI50 (NCI/ADR-RES ovarian) 280 nM | GI50 (SF-295 CNS) 305 nM
2010 nM: TGI (NCI-H522 lung)
6090 nM: TGI (SF-295 CNS)
> 100000 nM: TGI (OVCAR-4 ovarian) | TGI (HCT-116 colon) | TGI (NCI-H23 lung) | TGI (SK-MEL-28 melanoma) | TGI (SR leukemia) | TGI (HL-60(TB) leukemia) | TGI (HS 578T breast) | TGI (SF-268 CNS) | TGI (RPMI-8226 leukemia) | TGI (HCT-15 colon) | TGI (HCC-2998 colon) | TGI (K-562 leukemia) | TGI (OVCAR-5 ovarian) | TGI (LOX IMVI melanoma) | TGI (ACHN renal) | TGI (M14 melanoma) | TGI (UACC-62 melanoma) | TGI (SN12C renal) | TGI (MCF7 breast) | TGI (MOLT-4 leukemia) | TGI (CCRF-CEM leukemia)
23000 nM: TGI (SK-OV-3 ovarian)
16200 nM: TGI (MALME-3M melanoma) | TGI (U251 CNS)
34400 nM: TGI (DU-145 prostate)
27000 nM: TGI (HOP-62 NSCLC)
6980 nM: TGI (COLO 205 colon)
> 72500 nM: TGI (SW-620 colon)
9840 nM: TGI (RXF 393 renal)
46600 nM: TGI (A498 renal)
> 66700 nM: TGI (PC-3 prostate)
> 75100 nM: TGI (SNB-19 CNS)
1720 nM: TGI (HT29 colon)
22900 nM: TGI (IGROV1 ovarian)
38700 nM: TGI (BT-549 breast)
> 27500 nM: TGI (T-47D breast)
9050 nM: TGI (SF-539 CNS)
77200 nM: TGI (KM12 colon)
3000 nM: TGI (OVCAR-3 ovarian)
18100 nM: TGI (TK-10 renal)
86200 nM: TGI (MDA-MB-231 breast)
> 37900 nM: TGI (CAKI-1 renal)
11700 nM: TGI (SK-MEL-5 melanoma)
323 nM: TGI (MDA-MB-435)
> 42200 nM: TGI (NCI-H460 lung)
12400 nM: TGI (NCI/ADR-RES ovarian)
> 90300 nM: TGI (UACC-257 melanoma)
> 66000 nM: TGI (NCI-H226 lung)
inactive: GI50 (OVCAR-4 ovarian) 2890 nM | GI50 (PC-3 prostate) 988 nM | GI50 (SNB-75 CNS) 542 nM | GI50 (NCI-H23 lung) 1160 nM | GI50 (SK-MEL-28 melanoma) 3120 nM | GI50 (SR leukemia) 437 nM | GI50 (NCI-H226 lung) 2550 nM | GI50 (UO-31 renal) 523 nM | GI50 (HOP-62 NSCLC) 718 nM | GI50 (RXF 393 renal) 1100 nM | GI50 (HS 578T breast) 5900 nM | GI50 (SF-539 CNS) 655 nM | GI50 (SF-268 CNS) 813 nM | GI50 (RPMI-8226 leukemia) 1840 nM | GI50 (HCT-15 colon) 503 nM | GI50 (UACC-257 melanoma) 1650 nM | GI50 (HCC-2998 colon) 1270 nM | GI50 (TK-10 renal) 1560 nM | GI50 (OVCAR-8 ovarian) 776 nM | GI50 (OVCAR-5 ovarian) 8880 nM | GI50 (MDA-MB-231 breast) 1330 nM | GI50 (LOX IMVI melanoma) 537 nM | GI50 (HOP-92 NSCLC) 915 nM | GI50 (ACHN renal) 970 nM | GI50 (UACC-62 melanoma) 448 nM | GI50 (A498 renal) 688 nM | GI50 (SN12C renal) 1470 nM | GI50 (SK-OV-3 ovarian) 966 nM | GI50 (MCF7 breast) 1070 nM | GI50 (EKVX NSCLC) 636 nM | GI50 (MOLT-4 leukemia) 798 nM | GI50 (DU-145 prostate) 1050 nM | GI50 (SNB-19 CNS) 825 nM | GI50 (BT-549 breast) 1160 nM | GI50 (SK-MEL-2 melanoma) 498 nM | GI50 (CCRF-CEM leukemia) 534 nM | GI50 (A549 NSCLC) 656 nM | GI50 (T-47D breast) 783 nM | GI50 (COLO 205 colon) 431 nM | GI50 (786-0 renal) 2660 nM
> 91900 nM: TGI (OVCAR-8 ovarian)
> 40500 nM: TGI (EKVX NSCLC)
14100 nM: TGI (HOP-92 NSCLC)
